PubChem BioAssay (NCI)
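Step 1: Grow cells in 96-well plates. Step 2: Expose to compound for 48 hours at 5 concentrations. Step 3: Interpolate endpoints linearly; if unreached, use highest concentration. The concentration for full growth arrest is given as TGI.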

How the values were obtained:
Experiment in all cases: inhibition of tumour cell growth, NCI panel, 48 h
[1] = test system: HOP-92 NSCLC
[2] = test system: MCF7 breast
[3] = test system: SK-MEL-28 melanoma
[4] = test system: SNB-19 CNS
[5] = test system: A498 renal
[6] = test system: NCI-H522 lung
[7] = test system: UACC-257 melanoma
[8] = test system: MOLT-4 leukemia
[9] = test system: NCI-H226 lung
[10] = test system: SK-MEL-2 melanoma
[11] = test system: HT29 colon
[12] = test system: 786-0 renal
[13] = test system: SK-MEL-5 melanoma
[14] = test system: HOP-62 NSCLC
[15] = test system: MDA-MB-435
[16] = test system: U251 CNS
[17] = test system: OVCAR-5 ovarian
[18] = test system: HCT-15 colon
[19] = test system: LOX IMVI melanoma
[20] = test system: NCI/ADR-RES ovarian
[21] = test system: HL-60(TB) leukemia
[22] = test system: NCI-H460 lung
[23] = test system: HS 578T breast
[24] = test system: RPMI-8226 leukemia
[25] = test system: SW-620 colon
[26] = test system: ACHN renal
[27] = test system: BT-549 breast
[28] = test system: OVCAR-8 ovarian
[29] = test system: MDA-MB-231 breast
[30] = test system: HCT-116 colon
[31] = test system: OVCAR-3 ovarian
[32] = test system: MALME-3M melanoma
[33] = test system: DU-145 prostate
[34] = test system: T-47D breast
[35] = test system: SN12C renal
[36] = test system: RXF 393 renal
[37] = test system: K-562 leukemia
[38] = test system: TK-10 renal
[39] = test system: UO-31 renal
[40] = test system: CAKI-1 renal
[41] = test system: PC-3 prostate
[42] = test system: MDA-N
[43] = test system: SF-268 CNS
[44] = test system: COLO 205 colon
[45] = test system: M14 melanoma
[46] = test system: A549 NSCLC
[47] = test system: IGROV1 ovarian
[48] = test system: CCRF-CEM leukemia
[49] = test system: NCI-H23 lung
[50] = test system: KM12 colon
[51] = test system: OVCAR-4 ovarian
[52] = test system: SF-295 CNS
[53] = test system: UACC-62 melanoma
[54] = test system: SK-OV-3 ovarian
[55] = test system: HCC-2998 colon
[56] = test system: SNB-75 CNS
[57] = test system: EKVX NSCLC
[58] = test system: SR leukemia
[59] = test system: SF-539 CNS

Measured: TGI

O=C1NC(=O)C(C(c2ccc([N+](=O)[O-])cc2)C2C(=O)NC(=O)NC2=O)C(=O)N1
not listed: [54] | [55] | [56] | [57] | [58] | [59]
> 100 µM: all other assays above

CC1(O)C2(c3ccccc3)CCC[N+]1(C)CC2 (stereo not given)
not listed: [6] | [12] | [26] | [43] | [46] | [57] | [58] | [59]
> 100 µM: all other assays above

COC(=O)/C=C\C(C#N)(C#N)N=Cc1cccs1
19.9 µM: [27]
> 50.2 µM: [30]
11.2 µM: [13]
4.12 µM: [26]
27.3 µM: [49]
32 µM: [47]
5.99 µM: [39]
17 µM: [51]
> 100 µM: [37]
26 µM: [3] | [41]
3.75 µM: [1]
22.1 µM: [17]
27.6 µM: [7]
33.8 µM: [55]
42.3 µM: [54] | [52]
25.4 µM: [53]
> 56.5 µM: [4]
32.6 µM: [14]
78.3 µM: [23]
4.06 µM: [2]
49.3 µM: [42]
7.36 µM: [24]
45 µM: [20]
4.2 µM: [21]
> 24.5 µM: [8]
20.7 µM: [9]
4.24 µM: [11]
34.3 µM: [5] | [10]
5.74 µM: [29]
32.1 µM: [43]
29.3 µM: [56]
5.51 µM: [36]
24.3 µM: [33]
38.7 µM: [35]
5.69 µM: [18]
> 56 µM: [46]
3.58 µM: [48]
15.4 µM: [45]
6.61 µM: [32]
3.77 µM: [40]
2.24 µM: [6]
25.2 µM: [57]
> 53.3 µM: [16]
6.68 µM: [19]
3.43 µM: [38]
14.4 µM: [28]
> 46.3 µM: [12]
18 µM: [15]
37.8 µM: [50]
25.1 µM: [31]
7.51 µM: [34]
39.7 µM: [22]

CC(=O)OCC1=CC2OC(=O)C3=COC(OC4OC(CO)C(O)C(O)C4O)C1C32 (stereo not given)
not listed: [8] | [22] | [32] | [36] | [37]
> 100 µM: all other assays above

COc1ccc(C(=O)CCN(C)C)c2ccccc12
55.8 µM: [57]
> 58.1 µM: [53]
34 µM: [26] | [41]
60.3 µM: [3]
36 µM: [55]
42.8 µM: [19]
17.4 µM: [40]
> 96.5 µM: [17]
4.44 µM: [24]
> 88.8 µM: [5]
36.6 µM: [44]
61.5 µM: [56]
51.4 µM: [49]
35.1 µM: [16]
21.9 µM: [6]
> 58.7 µM: [7]
49.3 µM: [25]
40.5 µM: [28]
98.3 µM: [45]
41.9 µM: [1] | [36]
39.2 µM: [10]
48.1 µM: [15]
11.8 µM: [48]
37.6 µM: [27]
> 63.7 µM: [50]
65.1 µM: [51]
37 µM: [21]
60 µM: [37]
> 54.4 µM: [38]
55.4 µM: [43]
27.4 µM: [12]
36.9 µM: [31]
66.7 µM: [11]
33.1 µM: [59]
50.5 µM: [42]
49.1 µM: [35]
46 µM: [8]
52.5 µM: [30]
34.4 µM: [32]
> 62 µM: [33]
35.6 µM: [29]
49.5 µM: [34]
40.2 µM: [47]
57 µM: [23]
48.7 µM: [18]
33.2 µM: [2]
> 78.3 µM: [14]
44.2 µM: [39]
not listed: [58]
> 100 µM: all other assays above

O=S1(=O)c2ccccc2N2C(c3ccccc3)=NOC2(c2ccccc2)CC1c1ccc(Br)cc1 (stereo not given)
not listed: [24] | [40]
> 100 µM: all other assays above

CC(=O)Nn1cnc(C(=N)C#N)c1N
not listed: [1] | [36]
> 100 µM: all other assays above
